Data reported in US10196417B2, “Baicalin magnesium compound and its preparation method and application” (CHENGDE MEDICAL UNIVERSITY, priority 2016, dated 2019).
Converted amounts (≈) assume the structure as drawn. Marks after values point to notes of the source that are not given here.

Experiments:
[1] = system: acetic acid-induced pain in mice; assay: Analgesia: acetic acid-induced writhing; format: in vivo; details: 0.067 g/kg (baicalin equivalent) intragastric once per day 7 days; for Analgesia %: vs blank control; for Number of writhing: writhing within 15 minutes after 0.6% acetic acid i.p.
Method: 40 mice, 20-22 g in weight, were randomly divided into 4 groups each having 10 mice, a baicalin (0.067 g/kg) group, a baicalin magnesium (equivalent to 0.067 g/kg of baicalin) group, a blank control group (administrated with normal saline), and an aspirin positive control group (0.15 g/kg). The mice were intragastrically administrated once per day for successive 7 days. After 30 minutes of final administration, the mice were intraperitoneally injected with 0.6% acetic acid saline solution at a dose of 0.2 mL/10 g; the number of writhing responses in the mice within 15 minutes was counted. Analgesia % was calculated as follows: Analgesia %=[(average number of writhing responses of the blank control group−average number of writhing responses of the drug administration group)/average number of writhing responses of the blank control group]×100%. Single-factor variance analysis was performed on data by the SPSS19.0 statistical software, and P<0.05 was of statistical significance.

[2] = Water solubility at 37° C. (equilibrium solubility method); format: physicochemical; details: for solubility: 37 °C, thermodynamic from solid
Method: The solubility of the baicalin and the solubility of the baicalin magnesium in water at 37° C. were measured by a conventional solubility measurement method.

[3] = system: mice with acute liver injury induced by D-galactose; assay: Protection against liver injury (D-galactose-induced acute liver injury); format: in vivo; details: intragastric, 10 mg/kg baicalin or equivalent, 5 days, D-galactose 0.5 g/kg i.p. on day 4
Method: 40 healthy mice were randomly divided into 4 groups, a normal group, a model group, a baicalin group and a baicalin magnesium group. Mice in the baicalin group were administrated with baicalin at a dose of 10 mg/kg, and mice in the baicalin magnesium group were administrated with baicalin magnesium at a dose equivalent to 10 mg/kg of baicalin. Mice in the normal group and the model group were intragastrically administrated with the same volume of normal saline for 5 days. On the fourth day, mice in the model group and the administration groups were intraperitoneally injected with 0.5 g/kg of D-galactose, and mice in the normal group were intraperitoneally injected with the same volume of normal saline. The activities of ALT, AST, SOD and GSH-Px in the serum and the content of MDA were detected. Variance analysis was performed by SPSS-19.0 statistical software.

[4] = system: xylene-induced ear swelling in mice; assay: Anti-inflammatory activity: xylene-induced ear swelling; format: in vivo; details: n = 8
Method: 144 healthy mice were randomly divided into 3 groups, a baicalin group, a baicalin magnesium group and a control group. Each group was divided into six subgroups each having 8 mice according to time points (1 h, 3 h, 5 h, 7 h, 11 h and 15 h). Mice in the baicalin group were orally administrated (ig administration) at a dose of 100 mg·kg-1; mice in the baicalin magnesium group were orally administrated (ig administration) at a dose equivalent to 100 mg·kg-1 of baicalin; and mice in the control group were administrated with the same volume of normal saline. At 40 minutes before each time point, 100 μl of xylene was dropped in left ears of the mice in each group; when at a time point, the animals were sacrificed. Auricles of both ears of the mice were obtained with a puncher, and the difference in weight (swelling degree) between the left ear and the right ear was used as an indication of the anti-inflammatory effect of the drug.

[5] = system: yeast-induced febrile rats; assay: Antipyretic effect in yeast-induced febrile rats; format: in vivo, SD male rats; details: for ΔT comparing the baicalin magnesium with the baicalin: difference between groups; for Body temperature change ΔT: intragastric 80 mg/kg baicalin or equivalent
Method: SD male rats were randomly divided into 4 groups, a control group, a model group, a baicalin group and a baicalin magnesium group. Rats were raised in a normal day/night cycle and at room temperature (22±2° C.) and a relative humidity of (50±2)%. Three days before the test, rats were placed in the experimental environment to adapt to the experimental conditions. Rats having a basal body temperature of 37.5-39.0° C. were selected for test The rats were fasted for 12 hours before the test, and the body temperature of rats was measured once every 1 hour when tested. Average of three body temperature values (the temperature values would be removed if a difference between the highest value and the lowest value was greater than 0.5° C.) of rats was used as the basal body temperature.
The rats were intragastrically administrated with baicalin or baicalin magnesium, and then immediately subcutaneously injected with 20% of dried yeast saline suspension (not for the control group). The administration mode was as follows: rats in the control group were intragastrically administrated with 2 ml/kg of normal saline and subcutaneously injected with 10 ml/kg of normal saline; rats in the model group were ntragastrically administrated 2 ml/kg of normal saline and subcutaneously injected with 2 g/kg of yeast; rats in the baicalin group were intragastrically administrated with 80 mg/kg of baicalin and subcutaneously injected with 2 g/kg of yeast; and rats in the baicalin magnesium group were intragastrically administrated with baicalin magnesium (equivalent to 80 mg/kg of baicalin) and subcutaneously injected with 2 g/kg of yeast. The body temperature of the rats was measured once every 2 hours for 14 hours to observe the temperature change of rats (ΔT, ° C.) at different time after injection of the yeast.

[6] = 1 h after oral 100 mg/kg baicalin or equivalent
[7] = 3 h after oral 100 mg/kg baicalin or equivalent
[8] = 5 h after oral 100 mg/kg baicalin or equivalent
[9] = 7 h after oral 100 mg/kg baicalin or equivalent
[10] = 11 h after oral 100 mg/kg baicalin or equivalent
[11] = 15 h after oral 100 mg/kg baicalin or equivalent

SMILES	Analgesia % [1]	Number of writhing [1]	Water solubility relative to the solubility of the baicalin ([2]; 37° C.)	solubility [2]	ALT (serum) [3]	AST (serum) [3]	GSH-Px (serum) [3]	MDA (serum) [3]	SOD (serum) [3]	Ear swelling degree (difference in weight left vs right ear) [4, 6]	Ear swelling degree (difference in weight left vs right ear) [4, 7]	Ear swelling degree (difference in weight left vs right ear) [4, 8]	Ear swelling degree (difference in weight left vs right ear) [4, 9]	Ear swelling degree (difference in weight left vs right ear) [4, 10]	Ear swelling degree (difference in weight left vs right ear) [4, 11]	ΔT comparing the baicalin magnesium with the baicalin ([5]; 6 h)	Body temperature change ΔT ([5]; 6 h after yeast 2 g/kg s.c.)	ΔT comparing the baicalin magnesium with the baicalin ([5]; 8 h)	Body temperature change ΔT ([5]; 8 h after yeast 2 g/kg s.c.)
O=C(O)C1O[C@@H](Oc2cc3oc(-c4ccccc4)cc(=O)c3c(O)c2O)C(O)[C@@H](O)[C@@H]1O (some centres unmarked) [Baicalin Magnesium, baicalin magnesium]	60.6*^Δ %	10.43 ± 3.56*^Δ	2225 times	129 mg/mL (≈ 289 mM)	165.1 ± 8.7*^Δ U/L	139.8 ± 13.7*^Δ U/L	11.8 ± 0.5*^Δ U/L	2.1 ± 0.3*^Δ nmol/L	48.2 ± 2.9 U/L	5.87 ± 2.05*^Δ mg	4.57 ± 3.56 mg	4.63 ± 2.78 mg	5.87 ± 3.43 mg	6.77 ± 3.75*^Δ mg	7.97 ± 2.85^Δ mg	0.2 °C	0.2 °C	0.5 °C	0.3 °C
O=C(O)[C@H]1O[C@@H](Oc2cc3oc(-c4ccccc4)cc(=O)c3c(O)c2O)[C@H](O)[C@@H](O)[C@@H]1O [Baicalin]	33.7* %	17.54 ± 4.44		0.058 mg/mL (≈ 0.13 mM)	191.4 ± 19.4 U/L	168.5 ± 11.9 U/L	9.8 ± 0.9 U/L	3.1 ± 0.4 nmol/L	45.2 ± 2.9 U/L	7.57 ± 3.05 mg	4.66 ± 2.76 mg	4.88 ± 1.99 mg	6.77 ± 2.54 mg	7.89 ± 2.98 mg	9.12 ± 1.98 mg		0.4 °C		0.8 °C
